Values after ≈ are worked out from the molar mass of the structure shown.
Tests used:
[1] = test system: superoxide radicals (O2^-) released from the peritoneal macrophage cells of guinea pig; assay: Inhibitory effect against superoxide radicals (O2^-) released from the peritoneal macrophage cells of guinea pig by stimulation (FMLP); type: cell-based; details: Cavia porcellus, Peritoneal macrophage cell; guinea pig peritoneal macrophages 2×10^6 cells/ml; FMLP 10^-7 M; cytochrome C reduction, OD550
Protocol: Inhibitory effect against superoxide radicals (O2^-) released from the peritoneal macrophage cells of guinea pig by stimulation:
Mineral oil (15 ml)was intraperitoneally administered to a guinea pig, then 96 hours after the administration, the peritoneal macrophage cells were sampled.
Superoxide radicals (O2^-) were determined by means of reduction of cytochrome C method according to the procedure described in an article written by T. Matsumoto, K. Takeshige and S. Minakami: Biochemical and Biophysical Research Communications, Vol. 88, No. 3, pp. 974-979, (1979).
Into 1 ml of 80 μM-cytochrome C solution, the peritoneal macrophage cells were added to make the final concentration of 2×10^6 cells/ml, then each one of the test compounds of the present invention was added thereto to make the test group sample. On the other hand, water was added in place of the test compound of the present invention to make the control group sample. Each of the test group samples and the control group samples were subjected to pre-incubation at 37° C. for 1 minute.
As to the stimulating agent for releasing superoxide radicals (O2^-), FMLP (formylmethionyl leucyl phenylalanine)was added to each one of the test sample solutions and the control group samples to make the final concentration of FMLP to 10^-7 M, then the sample solutions were subjected to additional reaction by incubation for 1 minute.
Difference between the optical absorbances measured at 550 nm (OD550) of both test group samples and control group samples were determined, the 50% inhibitory concentration (IC50) was obtained by calculating as the ratio of OD550 of the test group sample to that of the control group sample.

[2] = test system: releasing of lysozomal enzyme from the neutrocytes of rat; assay: Inhibitory effect against the releasing of lysozomal enzyme from the neutrocytes of rat; type: cell-based; details: rat neutrocytes 5×10^5 cells/ml; FMLP 10^-6 M + cytocharasin B 5 μg/ml; OD540
Protocol: Inhibitory effect against the releasing of lysozomal enzyme from the neutrocytes of rat
The neutrocytes of rat were samples from the abdominal cavity of rat 16 hours after the administration of 10 ml of 1% casein solution (physiological saline solution).
Reaction of the releasing of lysozomal enzyme from the neutrocytes of rat was determined by means of the method as described in an article written by T. Matsumoto, K. Takeshige and S. Minakami: Biochemical and Biophysical Research Communications, Vol. 88, No. 3, pp 974-979, (1979).
The neutrocytes being sampled were added to Hank's solution so as to make the concentration thereof as 5×10^5 cells/ml, the test compound of piperazine derivative of the present invention was added thereto to make the test group sample. On the other hand, water was added in place of the piperazine derivative of the present invention to make the control group sample. Each of the test group samples and the control group samples were subjected to pre-incubation at 37° C. for 1 minute.
As to the stimulating agents, 10^-6 M of FMLP (formylmethionyl leucyl phenylalanine) and 5 μg/ml of cytocharasin B solution were added to the test solutions. Thus obtained mixture of the solution was reacted by incubating for 15 minutes. After the incubation, the mixture of the solution was subjected to centrifugation at 2,000 rpm for 10 minutes. The supernatant (0.2 ml) was admixed with 0.5 ml of 0.1 M-acetic acid buffer solution (pH 4.5) in which 0.2 mM of phenolphthalein glucuronic acid was dissolved. Then the resulting mixture of the solution was reacted at 37° C. for 5 hours by incubation. After the reaction, 1N-NaOH solution was added to the reaction mixture so as to make the pH value thereof to pH 8 to 9, and the optical absorbance of both test group samples and control group samples were determined at 540 nm (OD540).
The 50% inhibitory concentration (IC50) values were obtained by calculation as the ratio of OD540 of the test group sample to that of the control group sample.

[3] = test system: releasing of hydrogen peroxide (H2 O2) from the neutrocyte of abdominal cavity of rat; assay: Inhibitory effect against the releasing of hydrogen peroxide (H2O2) from the neutrocyte of abdominal cavity of rat; type: cell-based, SD-strain rat; details: rat neutrocytes 10^6 cells/ml; FMLP 2×10^-6 M; 37° C., 1 hour; OD610
Protocol: Inhibitory effect against the releasing of hydrogen peroxide (H2 O2) from the neutrocyte of abdominal cavity of rat
1%-Casein solution was administered to the abdominal cavity of a SD-strain rat, then 16 hours after the administration, the neutrocytes were obtained by washing the abdominal cavity. Thus obtained neutrocytes were washed with Hank's solution.
In to a reaction mixture consisting of the following ingredients:
______________________________________
HRP (Horse Radish peroxide)
HEPES [N-(2-Hydroxyethyl)pipera-
zine N'-2-ethanesulfonic acid]
Rat neutrocytes 10^6 cells/ml
the test compound was added, then the whole mixture was incubated at 37° C. for 1 hour, and the mixture was subjected to a centrifugal separation at 2,000 rpm for minutes. After the centrifugal separation, 1 ml of the supernatant was sampled and 10 μl of 1N-NaOH aqueous solution was added thereto. Then, the optical absorbance at 610 nm (OD610) of the supernatant was determined by means of using a spectro-photometer.
The IC50 (50% inhibitory concentration) of the test compound was obtained by calculating as the ratio of OD610 of the test group sample to that of the control group sample.

| IC50 [2] [µg/mL] | IC50 [3] [µg/mL] | SMILES | IC50 [1] [µg/mL] |
| --- | --- | --- | --- |
| 3 | – | CC(C)C[C@H]1C(=O)N[C@](Cc2ccccc2)(C(=O)Nc2nc3ccccc3s2)C(=O)N1O (racemic) [Example 27, (3RS,6SR)-3-(benzothiazol-2-yl)carbamoyl-3-benzyl-1-hydroxy-6-isobutylpiperazine-2,5-dione] | 0.25 (≈ 0.552 µM) |
| 2 | 5 (≈ 13.8 µM) | COc1cccc(CNC(=O)[C@@]2(C)NC(=O)[C@H](CC(C)C)N(O)C2=O)c1 (racemic) [Example 29, (3RS,6SR)-1-hydroxy-6-isobutyl-3-[N-(3-methoxybenzyl)]carbamoyl-3-methylpiperazine-2,5-dione] | 3 (≈ 8.26 µM) |
| – | < 3 | COc1cc(C[C@@H]2NC(=O)[C@H](CC(C)C)N(O)C2=O)cc(OC)c1OC (relative stereo) [Example 15] | – |
| – | < 3 | COc1cc(C[C@@H]2NC(=O)[C@@H](CC(C)C)N(O)C2=O)cc(OC)c1OC (relative stereo) [Example 16] | 30 (≈ 81.9 µM) |
| – | < 3 | COc1cc(C[C@@H]2NC(=O)[C@H](CC(C)C)N(O)C2=O)cc(OC)c1O (relative stereo) [Example 17] | – |
| – | 5 (≈ 14.9 µM) | COc1ccc(C[C@@H]2NC(=O)[C@H](CC(C)C)N(O)C2=O)c(OC)c1 (relative stereo) [Example 18] | – |
| – | 5 (≈ 14.9 µM) | COc1ccc(C[C@@H]2NC(=O)[C@@H](CC(C)C)N(O)C2=O)c(OC)c1 (relative stereo) [Example 19] | 30 (≈ 89.2 µM) |
| 3 | – | COc1cccc(CNC(=O)[C@]2(Cc3ccccc3)NC(=O)[C@@H](CC(C)C)N(O)C2=O)c1 (relative stereo) [Example 28] | 3 (≈ 6.83 µM) |
| – | 3 (≈ 9.05 µM) | CCOC(=O)[C@H]1NC(=O)[C@@H](Cc2c[nH]c3ccccc23)N(O)C1=O (relative stereo) [Example 55] | – |
| – | < 6 | CC(C)C[C@H]1C(=O)N[C@@H](Cc2ccccc2)C(=O)N1O [Example 9, (3S, 6s)-3-benzyl-1-hydroxy-6-isobutylpiperazine-2,5-dione] | – |
| – | – | CC(C)C[C@@H]1C(=O)N[C@@H](Cc2ccccc2)C(=O)N1O [Example 10, (3S,6R)-3-Benzyl-1-hydroxy-6-isobutylpiperazine-2,5-dione] | 18 (≈ 65.1 µM) |
| – | 6 (≈ 20.5 µM) | CC(C)C[C@@H]1C(=O)N[C@@H](Cc2ccc(O)cc2)C(=O)N1O [Example 11] | – |
| 30 | – | CC(C)C[C@H]1C(=O)N[C@@H](Cc2cc(Cl)c(O)c(Cl)c2)C(=O)N1O [Example 20] | 30 (≈ 83.1 µM) |
| – | 10 (≈ 27.7 µM) | CC(C)C[C@@H]1C(=O)N[C@@H](Cc2cc(Cl)c(O)c(Cl)c2)C(=O)N1O [Example 21] | – |
| – | 3 (≈ 8.42 µM) | CC(C)C[C@@H]1C(=O)N[C@@H](Cc2cn(Cc3ccccc3)cn2)C(=O)N1O [Example 26] | 6 (≈ 16.8 µM) |
| – | – | CC(C)C[C@@H]1NC(=O)[C@H](Cc2c[nH]c3ccccc23)N(O)C1=O [Example 47, (3S,6S)-1-Hydroxy-6-(3-indolylmethyl)-3-isobutylpiperazine-2,5-dione] | 10 (≈ 31.7 µM) |
| – | < 3 | CC(C)C[C@@H]1NC(=O)[C@@H](Cc2c[nH]c3ccccc23)N(O)C1=O [Example 48, (3S, 6R)-1-Hydroxy-6-(3-indolylmethyl)-3-isobutylpiperazine-2,5-dione] | – |
| – | < 3 | O=C1N[C@@H](Cc2ccccc2)C(=O)N(O)[C@H]1Cc1c[nH]c2ccccc12 [Example 49] | 10 (≈ 28.6 µM) |
| – | < 3 | O=C1N[C@@H](Cc2ccccc2)C(=O)N(O)[C@@H]1Cc1c[nH]c2ccccc12 [Example 50] | – |
| – | 3 (≈ 9 µM) | CSCC[C@@H]1NC(=O)[C@H](Cc2c[nH]c3ccccc23)N(O)C1=O [Example 51] | 3 (≈ 9 µM) |
| – | – | CSCC[C@@H]1NC(=O)[C@@H](Cc2c[nH]c3ccccc23)N(O)C1=O [Example 52] | 6 (≈ 18 µM) |
| – | – | O=C1N[C@@H](COCc2ccccc2)C(=O)N(O)[C@H]1Cc1c[nH]c2ccccc12 [Example 53] | 30 (≈ 79.1 µM) |
| – | 3 (≈ 7.91 µM) | O=C1N[C@@H](COCc2ccccc2)C(=O)N(O)[C@@H]1Cc1c[nH]c2ccccc12 [Example 54] | – |
| – | 6 (≈ 16.4 µM) | O=C1N[C@@H](Cc2ccc(O)cc2)C(=O)N(O)[C@H]1Cc1c[nH]c2ccccc12 [Example 60] | 10 (≈ 27.4 µM) |
| – | < 3 | O=C1[C@@H]2CCCN2C(=O)[C@H](Cc2c[nH]c3ccccc23)N1O [Example 64] | – |

— patent publication US5607934A, “Piperazine derivatives and salts thereof” (Otsuka Pharmaceutical Co., Ltd., priority 1993, dated 1997)
